# Laboratory results published in patent US20250314668A1, “DNAZYMES FOR SENSING AND IMAGING TARGET MOLECULES” (BOARD OF REGENTS, THE UNIVERSITY OF TEXAS SYSTEM, priority 2024, published 2025).
# Entries after “also recorded” stand apart in the source; their conditions may differ. d = 2'-deoxy (DNA); m = 2'-O-methyl; r = 2'-OH (RNA)
# How the values were obtained:
# [1] = tested on: HT1080 cells; test: Fe^2+ and Fe^3+ imaging in cells treated with SAS and Fer-1, with or without NCOA4 knock down; assay type: cell-based
# Procedure: Ferroptosis is a Fe-related cell death. To understand how Fe^2+ and Fe^3+ have a role in this process, the cells were incubated with Sulfasalazine (SAS), which inhibits System Xc- and induces ferroptosis. Elevated Fe^2+ and Fe^3+ levels, as well as an elevated Fe^3+/Fe^2+ ratio over time, were observed when compared with nontreated controls. This elevation is inhibited by Ferrostatin-1 (Fer-1), an antioxidant that inhibits lipid peroxidation by scavenging alkoxyl radicals. […] This observation indicates the association between Fe levels and lipid peroxidation.
# To understand how labile iron and iron redox changes are associated with cell ferroptosis, the study focused on the regulatory effects of NCOA4 on Fe^2+ and Fe^3+. NCOA4 is a key gene that regulates iron homeostasis through ferritinophagy, degrading iron storage protein, and releasing iron into the cell. To understand how NCOA4 influences Fe^2+ and Fe^3+, the study used the CRISPR/Cas technique to knock down NCOA4 expressions. As shown with the western blot, single guide RNAs knocked down the expression of NCOA4 in the HT1080 cells. In these cells, reduced Fe^2+ and Fe^3+ signals were detected as indicated by the DNAzyme sensors. In the meanwhile, the redox ratio of Fe^3+/Fe^2+ elevated, indicating the NCOA4 may not only regulate the labile iron amount but also the Fe redox states.
# On the contrary, when inhibiting ferroptosis with Fer-1, reduced Fe^2+ and Fe^3+ levels were observed.
# [2] = PAGE gel activity assays of Fe^2+ H5 DNAzyme (cleavage site, truncation, pH, mutation combinations, selectivity); assay type: biochemical; settings: for cleavage by the original Fe^2+ H5 DNAzyme: presence of Fe^2+, anaerobic conditions; for relative activity of combined point mutations versus original: original FAM-labeled substrate, 100 μM FeCl2, 2 hours, room temperature
# Description: RNA Cleavage Dependence of Fe^2+ H5 and Fe^3+ B12 DNAzymes: To investigate the Fe^2+ H5 and Fe^3+ B12 DNAzymes, various cleavage site modifications were incorporated into the substrate strands. The original Fe^2+ H5 DNAzyme was combined with Fe^2+ H5 substrate strands containing either a 2′-hydroxyl (2′OH), 2′-hydrogen (2′H), or 2′O-methyl (2′OMe) at the cleavage site. The original Fe^2+ H5 DNAzyme cleaves the Fe^2+ H5 substrate strand containing 2′OH at the cleavage site in the presence of Fe^2+ under anaerobic conditions. […] Similarly, the original Fe^3+ B12 DNAzyme was combined with Fe^3+ B12 substrate strands containing either 2′OH, 2′H, or 2′OMe at the cleavage site. The original Fe^3+ B12 DNAzyme cleaves the Fe^3+ B12 substrate strand containing 2′OH at the cleavage site in the presence of Fe^3+. […] These findings highlight the critical role of the 2′OH group at the cleavage site in enabling DNAzyme activity for both Fe^2+ H5 and Fe^3+ B12 systems, as substitutions with 2′H or 2′OMe impede cleavage.
# Truncations of Fe^2+ H5 and Fe^3+ B12 DNAzymes' Binding Arms: To further investigate the Fe^2+ H5 and Fe^3+ B12 DNAzymes, the DNAzymes were truncated at the 5′ and 3′ ends and tested using the FAM-labeled original substrate strand through activity assays assessed by PAGE gel. The activity of the Fe^2+ H5 DNAzyme with the original substrate strand remains relatively unchanged when 1 or 2 nucleotides are truncated from either the 3′ or 5′ end. […] The activity of the Fe^3+ B12 DNAzyme with the original substrate strand is maintained when 1 or 2 nucleotides are truncated from the […]. A notable reduction in relative intensity occurs when 3, 4, or 5 nucleotides are truncated from the 5′ end. Additionally, truncation of 1, 2, or 3 nucleotides from the 3′ end also results in a decrease in relative intensity.
# pH Dependency of Fe^2+ H5 and Fe^3+ B12 DNAzymes: To further investigate the impact of reaction conditions on catalytic activity, the study evaluated the influence of pH system. For the Fe^2+ H5 DNAzyme, the study assessed cleavage efficiency across a pH range of 6.0 to 7.5 in MOPS, MES, Bis-Tris, or Tris under anaerobic conditions with 100 μM FeCl2.
# Combination of Fe^2+ H5 DNAzyme strand Improvements: Given the enhanced activity observed with several point mutations in the Fe^2+ H5 DNAzyme strand, the study investigated whether combinations of these point mutations would further improve the DNAzyme's activity. The study designed 41 combinations of the 6-point mutations located at positions 39 (A39T and A39G), 40 (A40C), 51 (G51C), 52 (C52G), and 54 (T54C), along with the original Fe^2+ H5. Each sequence was tested with the original FAM-labeled Fe^2+ substrate strand in the presence of 100 μM FeCl2 for 2 hours at room temperature. […] Certain combinations of mutations enhance activity, while others diminish it, indicating interactions that are not merely additive. The specific positions of the mutations play a critical role in determining the overall activity, with some combinations inducing beneficial conformational changes and others disrupting key structural elements. These findings highlight the importance of understanding the contextual interplay of mutations for optimizing DNAzyme performance. The identified combinations that increase activity offer valuable insights for the future engineering of more efficient DNAzyme variants.
# Combining Enhanced Fe^2+ H5 and Fe^3+ B12 DNAzymes Single Point Mutations: To assess the potential additive effects of combining enhanced Fe^2+ H5 DNAzyme strands with substrate strands, the study evaluated the relative intensities of point mutations within these strands. Reactions were conducted in a buffer solution containing 25 mM Bis-Tris, 200 mM NaCl at pH 6.5, with 250 nM each of the mutated H5 DNAzyme strand and the FAM-labeled mutated H5 substrate strand, and 100 μM FeCl2. […]
# [3] = Point mutation gel cleavage assay of Fe^2+ H5 DNAzyme and substrate (heat map); assay type: biochemical; settings: 100 μM FeCl2, pH 6.5, anaerobic, overnight; for activity of mutated substrate strand normalized to original Fe^2+ H5 Substrate: original DNAzyme strand; for activity of mutated DNAzyme strand normalized to original Fe^2+ H5 DNAzyme: FAM-labeled original substrate
# Procedure: (§1) FIG. 7 depicts a heat map illustrating the impact of point mutations within the catalytic core of the Fe^2+ H5 DNAzyme, against the unaltered Fe^2+ H5 substrate strand for comparative analysis with 25 mM Bis Tris, 200 mM NaCl at pH 6.5 with 100 μM FeCl2 in anaerobic conditions. The reaction occurred overnight at room temperature and analyzed by polyacrylamide gel electrophoresis.
# as §1, with “8” for “7”, “Substrate strand,” for “DNAzyme,”, “DNAzyme” for “substrate”
# (§2) Point mutations were intentionally introduced into the Fe^2+ H5 DNAzyme, and subsequently assessed in comparison to the unaltered Fe^2+ H5 Substrate under controlled reaction conditions. These conditions include a solution containing 25 mM Bis Tris, 200 mM NaCl at pH 6.5, with concentrations set at 250 nM for both the mutated H5 DNAzyme Strand and the FAM-labeled Original H5 Substrate Strand, alongside 100 μM FeCl2. The reaction proceeded overnight at room temperature under anaerobic conditions, followed by analysis via electrophoresis on a 15% denaturing gel.
# as §2, with “Fe^2+ H5 Substrate Strand, and subsequently” for “Fe^2+ H5 DNAzyme, and subsequently”, “Fe^2+ H5 DNAzyme under controlled” for “Fe^2+ H5 Substrate under controlled”, “both the Original H5 DNAzyme” for “both the mutated H5 DNAzyme”, “the FAM-labeled mutated H5 Substrate” for “the FAM-labeled Original H5 Substrate”
molecule,measurement,setting,value
"O=C(O)c1cc(/N=N/c2ccc(S(=O)(=O)Nc3ccccn3)cc2)ccc1O [SAS, Sulfasalazine]",Fe^2+ and Fe^3+ levels in control guide RNA cells,[1],elevated
same,Fe^2+ and Fe^3+ levels compared with nontreated controls,[1]; over time,Elevated
same,Fe^3+/Fe^2+ ratio compared with nontreated controls,[1]; over time,elevated
same,increase in Fe^2+ and Fe^3+ levels in NCOA4 downregulated cells,[1]; similar treatments as control cells,smaller increase
"Fe^2+ H5 Original Substrate (2′OMe) (CGGACCCGTATCAATCTCACGTATAGGATATCCA; sugars from the 5' end d24 m1 d9, backbone not given here)",cleavage by the original Fe^2+ H5 DNAzyme,[2],does not cleave
"CCOC(=O)c1ccc(NC2CCCCC2)c(N)c1 [Fer-1, Ferrostatin-1]",effect of Fer-1 on the SAS-induced elevation of Fe levels,[1]; Fer-1 added to SAS-treated cells,inhibited; also recorded: reduced
same,Fe^2+ and Fe^3+ levels in control guide RNA cells,[1],reduced
same,Fe^2+ and Fe^3+ levels compared with nontreated controls,[1]; over time,slightly reduced
"Fe^2+ H5 Substrate A13C (CGGACCCGTATCCATCTCACGTATAGGATATCCA; DNAzyme; sugars from the 5' end d24 r1 d9, backbone not given here; FAM-labeled in assays, further chemistry not fully specified)",activity of mutated substrate strand normalized to original Fe^2+ H5 Substrate,[3],heightened activity
"Fe^2+ H5 Substrate A14T (CGGACCCGTATCATTCTCACGTATAGGATATCCA; DNAzyme; sugars from the 5' end d24 r1 d9, backbone not given here; FAM-labeled in assays, further chemistry not fully specified)",activity of mutated substrate strand normalized to original Fe^2+ H5 Substrate,[3],heightened activity
"Fe^2+ H5 Substrate T11C (CGGACCCGTACCAATCTCACGTATAGGATATCCA; DNAzyme; sugars from the 5' end d24 r1 d9, backbone not given here; FAM-labeled in assays, further chemistry not fully specified)",activity of mutated substrate strand normalized to original Fe^2+ H5 Substrate,[3],heightened activity
"Fe^2+ H5 Original Substrate (2′H) (CGGACCCGTATCAATCTCACGTATAGGATATCCA; DNA, backbone not given here)",cleavage by the original Fe^2+ H5 DNAzyme,[2],does not cleave
"Fe^2+ H5 DNAzyme A39T (nucleic acid, DNA, backbone not given here) TGGATATCTCCTAGCCAGACTGTTATGTGTGATACGGCTAACTTCGTGATGCCTCTACGGGTCCG",activity of mutated DNAzyme strand normalized to original Fe^2+ H5 DNAzyme,[3],heightened activity
"Fe^2+ H5 DNAzyme C52G (nucleic acid, DNA, backbone not given here) TGGATATCTCCTAGCCAGACTGTTATGTGTGATACGGCAAACTTCGTGATGGCTCTACGGGTCCG",activity of mutated DNAzyme strand normalized to original Fe^2+ H5 DNAzyme,[3],heightened activity
"Fe^2+ H5 DNAzyme Combo 30 (nucleic acid, DNA, backbone not given here) TGGATATCTCCTAGCCAGACTGTTATGTGTGATACGGCGCACTTCGTGATGCCCCTACGGGTCCG",relative activity of combined point mutations versus original,[2],increased the relative activity
"Fe^2+ H5 DNAzyme G51C (nucleic acid, DNA, backbone not given here) TGGATATCTCCTAGCCAGACTGTTATGTGTGATACGGCAAACTTCGTGATCCCTCTACGGGTCCG",activity of mutated DNAzyme strand normalized to original Fe^2+ H5 DNAzyme,[3],heightened activity
"Fe^2+ H5 DNAzyme Combo 29 (nucleic acid, DNA, backbone not given here) TGGATATCTCCTAGCCAGACTGTTATGTGTGATACGGCGAACTTCGTGATCGCTCTACGGGTCCG",relative activity of combined point mutations versus original,[2],increased the relative activity
"Fe^2+ H5 DNAzyme T54C (nucleic acid, DNA, backbone not given here) TGGATATCTCCTAGCCAGACTGTTATGTGTGATACGGCAAACTTCGTGATGCCCCTACGGGTCCG",activity of mutated DNAzyme strand normalized to original Fe^2+ H5 DNAzyme,[3],heightened activity
"Fe^2+ H5 DNAzyme Combo 41 (nucleic acid, DNA, backbone not given here) TGGATATCTCCTAGCCAGACTGTTATGTGTGATACGGCGCACTTCGTGATCGCCCTACGGGTCCG",relative activity of combined point mutations versus original,[2],increased the relative activity
"Fe^2+ H5 DNAzyme A40C (nucleic acid, DNA, backbone not given here) TGGATATCTCCTAGCCAGACTGTTATGTGTGATACGGCACACTTCGTGATGCCTCTACGGGTCCG",activity of mutated DNAzyme strand normalized to original Fe^2+ H5 DNAzyme,[3],heightened activity
"Fe^2+ H5 DNAzyme A39G (nucleic acid, DNA, backbone not given here) TGGATATCTCCTAGCCAGACTGTTATGTGTGATACGGCGAACTTCGTGATGCCTCTACGGGTCCG",activity of mutated DNAzyme strand normalized to original Fe^2+ H5 DNAzyme,[3],heightened activity
"Fe^2+ H5 DNAzyme Combo 31 (nucleic acid, DNA, backbone not given here) TGGATATCTCCTAGCCAGACTGTTATGTGTGATACGGCGCACTTCGTGATCGCTCTACGGGTCCG",relative activity of combined point mutations versus original,[2],decreased the relative activity
